# Experimental data taken from patent US20200392462A1, “METHODS OF FORMING CARDIOMYOCYES” (THE REGENTS OF THE UNIVERSITY OF COLORADO, A BODY CORPORATE, priority 2018, published 2020).
# Test: Inhibitor release study by HPLC
# Type: physicochemical
# Procedure: Inhibitor loading efficiency and release studies: All supernatants after initial loading of inhibitors were stored at −20° C. Supernatants were analyzed by reverse phase high performance liquid chromatography (HPLC). Inhibitor release studies were done sampling particle suspension inhibitor release up to 6 days. Briefly, drug release solution was prepared using 1 mL of 1×PBS, and 1 mL of 1% bovine serum albumin. The lyophilized pSi were suspended at a concentration of 3 mg/mL of drug release solution and incubated at 37° C. with constant stirring. At 1, 3, 5, 12 and every 24 hours thereafter, suspensions were centrifuged and 1 ml drug release solution was taken and replaced with fresh drug release solution. Agilent Zorbax Eclipse Plus C18 (100×4.6 mm, 3.5 um pore particle size) column was used for analysis. Samples flowed through the column at 1.0 ml/min and with a mobile phase consisting of acetonitrile in 0.1% trifluoroacedic acid: H2O in 0.1% trifluoroacedic acid (V/V). Samples were analyzed at 281 nm.
"cumulative release (from pSi coated with 5 wt % PLGA 50:50, after 144 hours) [%]","cumulative release (from pSi coated with 5 wt % PLGA 50:50, end of 72 hours) [%]","cumulative release (from pSi coated with 5 wt % PLGA 50:50, within the first 48 hours) [%]","cumulative release (from pSi, at 144 hours) [%]","cumulative release (from pSi, within the first 24 hours, 37° C., PBS/BSA) [%]",Structure (SMILES)
56.4±7.2,40.2±9.1,27.8±7.2,,,Cc1ccc2nc(NC(=O)CSc3nc4c(c(=O)n3-c3ccccc3)SCC4)sc2c1 [IWP2]
,,,~100,81.1±5.3,Cc1c[nH]c(-c2cnc(NCCNc3ccc(C#N)cn3)nc2-c2ccc(Cl)cc2Cl)n1 [CHIR99021]
